Laboratory results taken from patent US8017612B2, “Piperazine compound and use thereof as a HCV polymerase inhibitor” (priority 2006, dated 2011).

Legend:
[1] = molecular target: T1, HCV polymerase (NS5B) type 1b (Hepatitis C virus genotype 1b, UniProt P26663); assay: Assay of enzyme (HCV polymerase) inhibitory activity, type 1b enzyme; format: biochemical, HCV BK strain (type 1b)
T1 construct: a region encoding NS5B (J Virol 1991 March, 65(3), 1105-13, 544 amino acids after deletion of 47 amino acids on the C-terminal); 6xHis (C); made in house; host or cells: Escherichia coli
Procedure, shortened: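 IC50 derived from [3H]UTP incorporation into TCA-insoluble RNA, compared with and without test compound. Reaction (25 °C, 60 min, Tris pH 7.5, 5 mM MgCl2): E. coli-expressed 1b NS5B Δ47 with His tag at 0.5 μg/ml, 5 μg/ml run-off substrate RNA, ATP/GTP/CTP 50 μM, UTP 2 μM.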

[2] = molecular target: T2, HCV polymerase (NS5B) type 1a (Hepatitis C virus genotype 1a, UniProt P26664); assay: Assay of enzyme (HCV polymerase) inhibitory activity, type 1a enzyme; format: biochemical, HCV type 1a (cloned from the blood of patients)
T2 construct: made in house; host or cells: Escherichia coli (by the 'similar method' of the 1b enzyme)
Procedure, shortened: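 Reactions ran 60 min at 25° C in 20 mM Tris-HCl pH 7.5, 5 mM MgCl2, 50 mM NaCl, holding genotype 1a NS5B (1.5 μg/ml, Δ47 C-terminus, 6His), substrate RNA 5 μg/ml, UTP 2 μM with tritiated UTP and other NTPs 50 μM. IC50 derived from incorporated radiolabel in filter-trapped RNA relative to uninhibited reaction.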

[3] = HCV polymerase inhibitory activity (IC50), 1b, type 1b enzyme 0.5 μg/ml, 25° C., 60 min
[4] = HCV polymerase inhibitory activity (IC50), 1a, type 1a enzyme 1.5 μg/ml, 25° C., 60 min
[5] = HCV polymerase inhibitory activity IC50, 1b, type 1b enzyme
[6] = HCV polymerase inhibitory activity IC50, 1a, type 1a enzyme

Compound	IC50 [1, 3] [µM]	IC50 [2, 4] [µM]	IC50 [1, 5] [µM]	IC50 [2, 6] [µM]
CC(C)c1ccc(S(=O)(=O)N2CCN(C3=NCCN3)CC2C(=O)NCc2ccc(C(F)(F)F)cc2)cc1 (stereo not shown) [Example 103, 4-(4,5-dihydro-1H-imidazol-2-yl)-1-(4-isopropyl-benzenesulfonyl)-piperazine-2-carboxylic acid 4-trifluoromethyl-benzylamide]	> 1	> 1		
CCC(F)(F)c1ccc(CNC(=O)[C@H]2CN(C(=O)Nc3nnc(C)s3)CCN2S(=O)(=O)c2ccc(OC(F)(F)F)cc2)cc1 [Example 488, (R)-4-(4-trifluoromethoxy-benzenesulfonyl)-piperazine-1,3-dicarboxylic acid 3-[4-(1,1-difluoro-propyl)-benzylamide] 1-[(5-methyl-[1,3,4]thiadiazol-2-yl)-amide]]	< 0.1	0.1 to 1		
CC(=O)N1CCN(S(=O)(=O)c2ccc(C(C)C)cc2)C(C(=O)NCc2ccc([N+](=O)[O-])cc2)C1 (stereo not shown) [Example 77, 4-acetyl-1-(4-isopropyl-benzenesulfonyl)-piperazine-2-carboxylic acid 4-nitro-benzylamide]	> 1	> 1		
CNC(=O)c1sc(N2CCN(S(=O)(=O)c3ccc(OC(F)(F)F)cc3)[C@@H](C(=O)NCc3ccc(C(C)C)cc3)C2)nc1C [Example 354, (R)-4-(4-methyl-5-methylcarbamoyl-thiazol-2-yl)-1-(4-trifluoromethoxy-benzenesulfonyl)-piperazine-2-carboxylic acid 4-isopropyl-benzylamide]	< 0.1	< 0.1		
O=C(NCc1ccc(OC(F)(F)F)cc1)[C@H]1CN(c2nc3nc(Br)ncc3s2)CCN1S(=O)(=O)c1ccc(OC(F)(F)F)cc1 [Example 912, (R)-4-(5-bromo-thiazolo[4,5-d]pyrimidin-2-yl)-1-(4-trifluoromethoxy-benzenesulfonyl)-piperazine-2-carboxylic acid 4-trifluoromethoxy-benzylamide]			< 0.1	< 0.1
O=C(NCc1ccc(OC(F)F)cc1)[C@H]1CN(c2nn3ccc(=O)nc3s2)CCN1S(=O)(=O)c1ccc(OC(F)(F)F)cc1 [Example 1053, (R)-4-(7-oxo-7H-[1,3,4]thiadiazolo[3,2-a]pyrimidin-2-yl)-1-(4-trifluoromethoxy-benzenesulfonyl)-piperazine-2-carboxylic acid 4-difluoromethoxy-benzylamide]			< 0.1	< 0.1
CC(=O)N1CCN(S(=O)(=O)c2ccc(C(C)C)cc2)[C@@H](C(=O)NCc2ccc(C3(CO)CC3)cc2)C1 [Example 234, (R)-4-acetyl-1-(4-isopropyl-benzenesulfonyl)-piperazine-2-carboxylic acid 4-(1-hydroxymethyl-cyclopropyl)-benzylamide]	> 1	> 1		
CCC(F)(F)c1ccc(CNC(=O)[C@H]2CN(C(=O)Cn3nnnc3C)CCN2S(=O)(=O)c2ccc(OC(F)(F)F)cc2)cc1 [Example 467, (R)-4-[2-(5-methyl-tetrazol-1-yl)-acetyl]-1-(4-trifluoromethoxy-benzenesulfonyl)-piperazine-2-carboxylic acid 4-(1,1-difluoro-propyl)-benzylamide]	0.1 to 1	< 0.1		
CC(C)c1ccc(CNC(=O)[C@H]2CN(C(=O)Nc3ccc(N(C)C)cc3)CCN2S(=O)(=O)c2ccc(C(F)(F)F)cc2)cc1 [Example 200, (R)-4-(4-trifluoromethyl-benzenesulfonyl)-piperazine-1,3-dicarboxylic acid 1-[(4-dimethylamino-phenyl)-amide] 3-(4-isopropyl-benzylamide)]	0.1 to 1	> 1		
O=C(O)Cn1ncc2sc(N3CCN(S(=O)(=O)c4ccc(OC(F)(F)F)cc4)[C@@H](C(=O)NCc4ccc(OC(F)F)c(F)c4)C3)nc2c1=O [Example 1121]			< 0.1	< 0.1
O=C(NCc1ccc(OC(F)(F)F)cc1)[C@H]1CN(c2nc3nc(CN4CCCC4)ncc3s2)CCN1S(=O)(=O)c1ccc(OC(F)(F)F)cc1 [Example 1056, (R)-4-(5-pyrrolidin-1-ylmethyl-thiazolo[4,5-d]pyrimidin-2-yl)-1-(4-trifluoromethoxy-benzenesulfonyl)-piperazine-2-carboxylic acid 4-trifluoromethoxy-benzylamide]			< 0.1	< 0.1
O=C(NCc1ccc(OC(F)(F)F)cc1)[C@H]1CN(c2nn3c(C(F)(F)F)cc(=O)nc3s2)CCN1S(=O)(=O)c1ccc(C(F)(F)F)cc1 [Example 1067, (R)-4-(7-oxo-5-trifluoromethyl-7H-[1,3,4]thiadiazolo[3,2-a]pyrimidin-2-yl)-1-(4-trifluoromethyl-benzenesulfonyl)-piperazine-2-carboxylic acid 4-trifluoromethoxy-benzylamide]			< 0.1	< 0.1
COc1nc(C(F)(F)F)nc2nc(N3CCN(S(=O)(=O)c4ccc(OC(F)(F)F)cc4)[C@@H](C(=O)NCc4ccc(OC(F)(F)F)cc4)C3)sc12 [Example 1022, (R)-4-(7-methoxy-5-trifluoromethyl-thiazolo[4,5-d]pyrimidin-2-yl)-1-(4-trifluoromethoxy-benzenesulfonyl)-piperazine-2-carboxylic acid 4-trifluoromethoxy-benzylamide]			0.1 to 1	0.1 to 1
CC(=O)N1CCN(S(=O)(=O)c2ccc(C(C)C)cc2)C(C(=O)NCc2ccc(NC(=O)C(C)(C)C)cc2)C1 (stereo not shown) [Example 98, 4-acetyl-1-(4-isopropyl-benzenesulfonyl)-piperazine-2-carboxylic acid 4-(2,2-dimethyl-propionylamino)-benzylamide]	> 1	> 1		
CC(C)c1ccc(S(=O)(=O)N2CCN(C(=O)CO)CC2C(=O)NCc2ccc(C(F)(F)F)cc2)cc1 (stereo not shown) [Example 55, 4-(2-hydroxy-acetyl)-1-(4-isopropyl-benzenesulfonyl)-piperazine-2-carboxylic acid 4-trifluoromethyl-benzylamide]	> 1	> 1		
O=C(NCc1ccc(OC(F)(F)F)cc1)[C@H]1CN(c2nc3nccnc3s2)CCN1S(=O)(=O)c1ccc(OC(F)(F)F)cc1 [Example 794, (R)-4-thiazolo[4,5-b]pyrazin-2-yl-1-(4-trifluoromethoxy-benzenesulfonyl)-piperazine-2-carboxylic acid 4-trifluoromethoxy-benzylamide]			< 0.1	< 0.1
CCCc1ccc(CNC(=O)[C@H]2CN(c3nc(C)c(CCC(=O)O)s3)CCN2S(=O)(=O)c2ccc(OC(F)(F)F)cc2)cc1 [Example 826, 3-{4-methyl-2-[(R)-3-(4-propyl-benzylcarbamoyl)-4-(4-trifluoromethoxy-benzenesulfonyl)-piperazin-1-yl]-thiazol-5-yl}-propionic acid]			< 0.1	< 0.1
CCC(F)(F)c1ccc(CNC(=O)[C@H]2CN(C(=O)Cc3nnnn3C)CCN2S(=O)(=O)c2ccc(OC(F)(F)F)cc2)cc1 [Example 519, (R)-4-[2-(1-methyl-1H-tetrazol-5-yl)-acetyl]-1-(4-trifluoromethoxy-benzenesulfonyl)-piperazine-2-carboxylic acid 4-(1,1-difluoro-propyl)-benzylamide]	0.1 to 1	0.1 to 1		
Nc1nc(Cl)nc2nc(N3CCN(S(=O)(=O)c4ccc(OC(F)(F)F)cc4)[C@@H](C(=O)NCc4ccc(OC(F)(F)F)cc4)C3)sc12 [Example 962, (R)-4-(7-amino-5-chloro-thiazolo[4,5-d]pyrimidin-2-yl)-1-(4-trifluoromethoxy-benzenesulfonyl)-piperazine-2-carboxylic acid 4-trifluoromethoxy-benzylamide]			< 0.1	< 0.1
CN(C)c1ccc(CNC(=O)C2CN(C(=O)CN3CCOCC3)CCN2S(=O)(=O)c2ccc(I)cc2)cc1 (stereo not shown) [Example 104, 1-(4-iodo-benzenesulfonyl)-4-(2-morpholin-4-yl-acetyl)-piperazine-2-carboxylic acid 4-dimethylamino-benzylamide]	> 1	> 1		
CC(=O)N1CCN(S(=O)(=O)c2ccc(C(C)C)cc2)[C@@H](C(=O)NCCCN2CCCC2)C1 [Example 405, (R)-4-acetyl-1-(4-isopropyl-benzenesulfonyl)-piperazine-2-carboxylic acid (3-pyrrolidin-1-yl-propyl)-amide]	> 1	> 1		
CC(C)c1ccc(CNC(=O)[C@H]2CN(c3nc(CC(=O)O)cs3)CCN2S(=O)(=O)c2ccc(C(F)(F)F)cc2)cc1 [Example 259, {2-[(R)-3-(4-isopropyl-benzylcarbamoyl)-4-(4-trifluoromethyl-benzenesulfonyl)-piperazin-1-yl]-thiazol-4-yl}-acetic acid]	< 0.1	0.1 to 1		
CCCc1ccc(CNC(=O)[C@H]2CN(C(=O)Cn3cnnn3)CCN2S(=O)(=O)c2ccc(OC(F)(F)F)cc2)cc1 [Example 461, (R)-4-(2-tetrazol-1-yl-acetyl)-1-(4-trifluoromethoxy-benzenesulfonyl)-piperazine-2-carboxylic acid 4-propyl-benzylamide]	< 0.1	< 0.1		
